The test concerns recombinant NL4-3 virus (Renilla luciferase in nef, Gag P373S; NLRluc) in MT-2 cells. Put plainly: whole plant or invertebrate. The conditions noted are these: Renilla, NL43, luciferase activity in cells infected for 4-5 days with NLRluc recombinants, serial dilutions of inhibitor, read-out: EC50. Format: cell-based, HIV. An outline of the steps: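 Inhibitor potency against the reporter virus comes from reduced luciferase activity in infected MT-2 cells exposed to a dilution series of compound over 4-5 days.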

Read-outs that look alike come from different tables or passages of the source.

Consider `C=C(C)[C@@H]1CC[C@]2(NC(=O)C3CCCN3S(C)(=O)=O)CC[C@]3(C)[C@H](CC[C@@H]4[C@@]5(C)CC=C(c6ccc(C(=O)O)cc6)C(C)(C)[C@@H]5CC[C@]43C)[C@@H]12` (stereo partly drawn) [Example 113, 4-((1R,3aS,5aR,5bR,7aR,11aS,11bR,13aR,13bR)-5a,5b,8,8,11a-pentamethyl-3a-(1-(methylsulfonyl)pyrrolidine-2-carboxamido)-1-(prop-1-en-2-yl)-2,3,3a,4,5,5a,5b,6,7,7a,8,11,11a,11b,12,13,13a,13b-octadecahydro-1H-cyclopenta[a]chrysen-9-yl)benzoic acid], for which the EC50 (class symbols (key in Table 1)) was < 100 nM.

For `C=C(C)[C@@H]1CC[C@]2(NCC(=O)N(CC)CC)CC[C@]3(C)[C@H](CC[C@@H]4[C@@]5(C)CC=C(c6ccc(C(=O)O)cc6)C(C)(C)[C@@H]5CC[C@]43C)[C@@H]12` [Example 149, 4-((1R,3aS,5aR,5bR,7aR,11aS,11bR,13aR,13bR)-3a-(2-(diethylamino)-2-oxoethylamino)-5a,5b,8,8,11a-pentamethyl-1-(prop-1-en-2-yl)-2,3,3a,4,5,5a,5b,6,7,7a,8,11,11a,11b,12,13,13a,13b-octadecahydro-1H-cyclopenta[a]chrysen-9-yl)benzoic acid], for the setting “class symbols (key in Table 1)”, the EC50 is < 100 nM.

For `C=C(C)[C@@H]1CC[C@]2(NC(=O)NCC(=O)O)CC[C@]3(C)[C@H](CC[C@@H]4[C@@]5(C)CC=C(c6ccc(C(=O)O)cc6)C(C)(C)[C@@H]5CC[C@]43C)[C@@H]12` [Example 16, 4-((1R,3aS,5aR,5bR,7aR,11aS,11bR,13aR,13bR)-3a-(3-(carboxymethyl)ureido)-5a,5b,8,8,11a-pentamethyl-1-(prop-1-en-2-yl)-2,3,3a,4,5,5a,5b,6,7,7a,8,11,11a,11b,12,13,13a,13b-octadecahydro-1H-cyclopenta[a]chrysen-9-yl)benzoic acid], the EC50 (class symbols (key in Table 1)) is < 100 nM.

For the compound `CC(C)[C@@H]1CC[C@]2(NCCN3CCN(S(C)(=O)=O)CC3)CC[C@]3(C)[C@H](CC[C@@H]4[C@@]5(C)CC[C@H](c6ccc(C(=O)O)cc6)C(C)(C)[C@@H]5CC[C@]43C)[C@@H]12` [Example B16, 4-((1S,3aS,5aR,5bR,7aS,9S,11aS,11bR,13aR,13bR)-1-isopropyl-5a,5b,8,8,11a-pentamethyl-3a-((2-(4-(methylsulfonyl)piperazin-1-yl)ethyl)amino)icosahydro-1H-cyclopenta[a]chrysen-9-yl)benzoic acid], the EC50 (class symbols (key in Table 1)) was < 100 nM.

As for `C=C(C)[C@@H]1CC[C@]2(NC(=O)CN(C(C)C)C(C)C)CC[C@]3(C)[C@H](CC[C@@H]4[C@@]5(C)CC=C(c6ccc(C(=O)O)cc6)C(C)(C)[C@@H]5CC[C@]43C)[C@@H]12` [Example 123, 4-((1R,3aS,5aR,5bR,7aR,11aS,11bR,13aR,13bR)-3a-(2-(diisopropylamino)acetamido)-5a,5b,8,8,11a-pentamethyl-1-(prop-1-en-2-yl)-2,3,3a,4,5,5a,5b,6,7,7a,8,11,11a,11b,12,13,13a,13b-octadecahydro-1H-cyclopenta[a]chrysen-9-yl)benzoic acid], under “class symbols (key in Table 1)”, the EC50 was < 100 nM.

On to `C=C(C)[C@@H]1CC[C@]2(NCCCN(C)C)CC[C@]3(C)[C@H](CC[C@@H]4[C@@]5(C)CC=C(c6ccc(C(=O)O)cc6)C(C)(C)[C@@H]5CC[C@]43C)[C@@H]12` [Example 169, 4-((1R,3aS,5aR,5bR,7aR,11aS,11bR,13aR,13bR)-3a-(3-(dimethylamino)propylamino)-5a,5b,8,8,11a-pentamethyl-1-(prop-1-en-2-yl)-2,3,3a,4,5,5a,5b,6,7,7a,8,11,11a,11b,12,13,13a,13b-octadecahydro-1H-cyclopenta[a]chrysen-9-yl)benzoic acid], for which the EC50 (class symbols (key in Table 1)) was < 100 nM.

Take `C=C(C)[C@@H]1CC[C@]2(NC(=O)N(CCN3CCS(=O)(=O)CC3)CCN3CCS(=O)(=O)CC3)CC[C@]3(C)[C@H](CC[C@@H]4[C@@]5(C)CC=C(c6ccc(C(=O)O)cc6)C(C)(C)[C@@H]5CC[C@]43C)[C@@H]12` [Example 69, 4-((1R,3aS,5aR,5bR,7aR,11aS,11bR,13aR,13bR)-3a-((bis(2-(1,1-dioxido-4-thiomorpholinyl)ethyl)carbamoyl)amino)-1-isopropenyl-5a,5b,8,8,11a-pentamethyl-2,3,3a,4,5,5a,5b,6,7,7a,8,11,11a,11b,12,13,13a,13b-octadecahydro-1H-cyclopenta[a]chrysen-9-yl)benzoic acid]: the EC50 (class symbols (key in Table 1)) is < 100 nM.

`C=C(C)[C@@H]1CC[C@]2(NCCNc3cccc(SC)n3)CC[C@]3(C)[C@H](CC[C@@H]4[C@@]5(C)CC=C(c6ccc(C(=O)O)cc6)C(C)(C)[C@@H]5CC[C@]43C)[C@@H]12` [Example 198, 4-((1R,3aS,5aR,5bR,7aR,11aS,11bR,13aR,13bR)-5a,5b,8,8,11a-pentamethyl-3a-(2-(6-(methylthio)pyridin-2-ylamino)ethylamino)-1-(prop-1-en-2-yl)-2,3,3a,4,5,5a,5b,6,7,7a,8,11,11a,11b,12,13,13a,13b-octadecahydro-1H-cyclopenta[a]chrysen-9-yl)benzoic acid]: for the setting “class symbols (key in Table 1)”, the EC50 was < 100 nM.

In the case of `C=C(C)[C@@H]1CC[C@]2(NC(=O)C(=O)NC3CCCCC3)CC[C@]3(C)[C@H](CC[C@@H]4[C@@]5(C)CC=C(c6ccc(C(=O)O)cc6)C(C)(C)[C@@H]5CC[C@]43C)[C@@H]12` [Example 80, 4-((1R,3aS,5aR,5bR,7aR,11aS,11bR,13aR,13bR)-3a-(2-(cyclohexylamino)-2-oxoacetamido)-5a,5b,8,8,11a-pentamethyl-1-(prop-1-en-2-yl)-2,3,3a,4,5,5a,5b,6,7,7a,8,11,11a,11b,12,13,13a,13b-octadecahydro-1H-cyclopenta[a]chrysen-9-yl)benzoic acid], the EC50 (numeric values) came to 110 nM.

`C=C(C)[C@@H]1CC[C@]2(NC(=O)CN3CCN(CC)CC3)CC[C@]3(C)[C@H](CC[C@@H]4[C@@]5(C)CC=C(c6ccc(C(=O)O)cc6)C(C)(C)[C@@H]5CC[C@]43C)[C@@H]12` [Example 85, 4-((1R,3aS,5aR,5bR,7aR,11aS,11bR,13aR,13bR)-3a-(2-(4-ethylpiperazin-1-yl)acetamido)-5a,5b,8,8,11a-pentamethyl-1-(prop-1-en-2-yl)-2,3,3a,4,5,5a,5b,6,7,7a,8,11,11a,11b,12,13,13a,13b-octadecahydro-1H-cyclopenta[a]chrysen-9-yl)benzoic acid]: the EC50 (class symbols (key in Table 1)) is < 100 nM.

For `C=C(C)[C@@H]1CC[C@]2(NC(=O)N(C)CCN3CCCC3)CC[C@]3(C)[C@H](CC[C@@H]4[C@@]5(C)CC=C(c6ccc(C(=O)O)cc6)C(C)(C)[C@@H]5CC[C@]43C)[C@@H]12` [Example 44, 4-((1R,3aS,5aR,5bR,7aR,11aS,11bR,13aR,13bR)-5a,5b,8,8,11a-pentamethyl-3a-(3-methyl-3-(2-(pyrrolidin-1-yl)ethyl)ureido)-1-(prop-1-en-2-yl)-2,3,3a,4,5,5a,5b,6,7,7a,8,11,11a,11b,12,13,13a,13b-octadecahydro-1H-cyclopenta[a]chrysen-9-yl)benzoic acid], the EC50 (class symbols (key in Table 1)) was < 100 nM.

In the case of `C=C(C)[C@@H]1CC[C@]2(NC(=O)CNc3ccc(F)cc3)CC[C@]3(C)[C@H](CC[C@@H]4[C@@]5(C)CC=C(c6ccc(C(=O)O)cc6)C(C)(C)[C@@H]5CC[C@]43C)[C@@H]12` [Example 125, 4-((1R,3aS,5aR,5bR,7aR,11aS,11bR,13aR,13bR)-3a-(2-(4-fluorophenylamino)acetamido)-5a,5b,8,8,11a-pentamethyl-1-(prop-1-en-2-yl)-2,3,3a,4,5,5a,5b,6,7,7a,8,11,11a,11b,12,13,13a,13b-octadecahydro-1H-cyclopenta[a]chrysen-9-yl)benzoic acid], where the note is “class symbols (key in Table 1)”, the EC50 was < 100 nM.

As to `C=C(C)[C@@H]1CC[C@]2(NC(=O)CCc3nccn3C)CC[C@]3(C)[C@H](CC[C@@H]4[C@@]5(C)CC=C(c6ccc(C(=O)O)cc6)C(C)(C)[C@@H]5CC[C@]43C)[C@@H]12` [Example 75, 4-((1R,3aS,5aR,5bR,7aR,11aS,11bR,13aR,13bR)-5a,5b,8,8,11a-pentamethyl-3a-(3-(1-methyl-1H-imidazol-2-yl)propanamido)-1-(prop-1-en-2-yl)-2,3,3a,4,5,5a,5b,6,7,7a,8,11,11a,11b,12,13,13a,13b-octadecahydro-1H-cyclopenta[a]chrysen-9-yl)benzoic acid], the EC50 (class symbols (key in Table 1)) is < 100 nM.

With `C=C(C)[C@@H]1CC[C@]2(NC(=O)N[C@@H](C)C(=O)O)CC[C@]3(C)[C@H](CC[C@@H]4[C@@]5(C)CC=C(c6ccc(C(=O)O)cc6)C(C)(C)[C@@H]5CC[C@]43C)[C@@H]12` [Example 17, 4-((1R,3aS,5aR,5bR,7aR,11aS,11bR,13aR,13bR)-3a-(3-((S)-1-carboxyethyl)ureido)-5a,5b,8,8,11a-pentamethyl-1-(prop-1-en-2-yl)-2,3,3a,4,5,5a,5b,6,7,7a,8,11,11a,11b,12,13,13a,13b-octadecahydro-1H-cyclopenta[a]chrysen-9-yl)benzoic acid], the EC50 (class symbols (key in Table 1)) was < 100 nM.

`C=C(C)[C@@H]1CC[C@]2(NC(=O)N3CCN(C(=O)OC(C)(C)C)CC3C(=O)O)CC[C@]3(C)[C@H](CC[C@@H]4[C@@]5(C)CC=C(c6ccc(C(=O)O)cc6)C(C)(C)[C@@H]5CC[C@]43C)[C@@H]12` (mixture of isomers) [Example 62, 4-(tert-butoxycarbonyl)-1-((1R,3aS,5aR,5bR,7aR,11aS,11bR,13aR,13bR)-9-(4-carboxyphenyl)-5a,5b,8,8,11a-pentamethyl-1-(prop-1-en-2-yl)-2,3,3a,4,5,5a,5b,6,7,7a,8,11,11a,11b,12,13,13a,13b-octadecahydro-1H-cyclopenta[a]chrysen-3a-ylcarbamoyl)piperazine-2-carboxylic acid]: the EC50 (class symbols (key in Table 1)) was < 100 nM.

By EC50 is commonly meant the concentration giving half of the maximal effect.

Values taken from patent US20140343000A1 (priority 2011, published 2014).
